According to ChEMBL document CHEMBL1201862, “PubChem BioAssay data set” (2004):
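Compound exposure: 48 hours, 5 concentrations, 96-well plates. GI50 = concentration required for 50% inhibition of growth.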 Active and inactive are the calls of the source. Rule as the data show it: active = GI50 up to about 1.1 µM and inactive = higher.

Tests used:
Test in all cases: DTP human tumour cell line panel, 48 h
786-0 = tested on: 786-0
ACHN = tested on: ACHN
BT-549 = tested on: BT-549
COLO 205 = tested on: COLO 205
DU-145 = tested on: DU-145
HCT-116 = tested on: HCT-116
HCT-15 = tested on: HCT-15
KM12 = tested on: KM12
Malme-3M = tested on: Malme-3M
NCI-H226 = tested on: NCI-H226
OVCAR-3 = tested on: OVCAR-3
OVCAR-8 = tested on: OVCAR-8
RPMI-8226 = tested on: RPMI-8226
SF-268 = tested on: SF-268
SF-295 = tested on: SF-295
SW-620 = tested on: SW-620
UACC-257 = tested on: UACC-257
CAKI-1 = tested on: CAKI-1
MDA-N = tested on: MDA-N

| SMILES | GI50 (786-0) | GI50 (ACHN) | GI50 (BT-549) | GI50 (COLO 205) | GI50 (DU-145) | GI50 (HCT-116) | GI50 (HCT-15) [µM] | GI50 (KM12) | GI50 (Malme-3M) | GI50 (NCI-H226) | GI50 (OVCAR-3) | GI50 (OVCAR-8) | GI50 (RPMI-8226) | GI50 (SF-268) | GI50 (SF-295) | GI50 (SW-620) | GI50 (UACC-257) | GI50 (CAKI-1) | GI50 (MDA-N) |
| --- | --- | --- | --- | --- | --- | --- | --- | --- | --- | --- | --- | --- | --- | --- | --- | --- | --- | --- | --- |
| O=[N+]([O-])C(=C(Nc1ccccc1)Nc1ccccc1)/C(Cl)=C(\Cl)Br | 16.3 µM (inactive) | 11.4 µM (inactive) | 21.7 µM (inactive) | > 10 µM (inactive) | 16.5 µM (inactive) | 6.05 µM (inactive) | 11.9 | 12.3 µM (inactive) | 16.5 µM (inactive) | 0.671 µM (active) | 5.18 µM (inactive) | 16.5 µM (inactive) | 3.61 µM (inactive) | 16.8 µM (inactive) | 14.8 µM (inactive) | 6.82 µM (inactive) | 14.7 µM (inactive) | – | – |
| COC(=O)[C@@H]1CN(C(C)=O)C(=O)N1C(=O)OCc1ccccc1 | > 100 µM (inactive) | > 100 µM (inactive) | – | > 100 µM (inactive) | > 100 µM (inactive) | > 100 µM (inactive) | > 100 | > 100 µM (inactive) | > 100 µM (inactive) | > 100 µM (inactive) | > 100 µM (inactive) | > 100 µM (inactive) | > 100 µM (inactive) | 59.2 µM (inactive) | > 100 µM (inactive) | > 100 µM (inactive) | > 100 µM (inactive) | > 100 µM (inactive) | > 100 µM (inactive) |
| Cc1cc(C)c(OC(=O)Nc2cccc3ccccc23)c(-c2ccccc2)c1 | 50.5 µM (inactive) | 23.7 µM (inactive) | – | 50.1 µM (inactive) | 31.9 µM (inactive) | 34.9 µM (inactive) | 34.4 | 28.4 µM (inactive) | 32.4 µM (inactive) | 18.3 µM (inactive) | 24.5 µM (inactive) | 33.6 µM (inactive) | 22.5 µM (inactive) | 12.6 µM (inactive) | 48.8 µM (inactive) | 57.8 µM (inactive) | – | 33.7 µM (inactive) | 29 µM (inactive) |
| N#C/C(C(=O)NCc1ccccc1)=C(/N)N1CCCC1 | > 100 µM (inactive) | > 100 µM (inactive) | – | > 100 µM (inactive) | > 100 µM (inactive) | > 100 µM (inactive) | > 100 | > 100 µM (inactive) | > 100 µM (inactive) | > 100 µM (inactive) | > 100 µM (inactive) | > 100 µM (inactive) | > 100 µM (inactive) | > 100 µM (inactive) | > 100 µM (inactive) | > 100 µM (inactive) | > 100 µM (inactive) | 39.6 µM (inactive) | > 100 µM (inactive) |
| O=C(NC(CS)C(=O)O)c1cccc2c(=O)c3ccccc3[nH]c12 (stereo not drawn) | > 100 µM (inactive) | > 100 µM (inactive) | – | > 100 µM (inactive) | > 100 µM (inactive) | > 100 µM (inactive) | > 100 | > 100 µM (inactive) | > 100 µM (inactive) | > 100 µM (inactive) | > 100 µM (inactive) | > 100 µM (inactive) | > 100 µM (inactive) | > 100 µM (inactive) | > 100 µM (inactive) | > 100 µM (inactive) | – | – | > 100 µM (inactive) |
| Nc1ccc(/N=N\c2ccc(-c3ccc(O)cc3)cc2)c2ccc(S(=O)(=O)O)cc12 | > 100 µM (inactive) | > 100 µM (inactive) | > 100 µM (inactive) | > 100 µM (inactive) | > 100 µM (inactive) | > 100 µM (inactive) | > 100 | > 100 µM (inactive) | > 100 µM (inactive) | > 100 µM (inactive) | > 100 µM (inactive) | > 100 µM (inactive) | > 100 µM (inactive) | > 100 µM (inactive) | > 100 µM (inactive) | > 100 µM (inactive) | > 100 µM (inactive) | > 100 µM (inactive) | – |
| NC1CC(=O)c2ccccc21 (stereo not drawn) | > 100 µM (inactive) | > 100 µM (inactive) | > 100 µM (inactive) | > 100 µM (inactive) | > 100 µM (inactive) | > 100 µM (inactive) | > 100 | > 100 µM (inactive) | – | > 100 µM (inactive) | > 100 µM (inactive) | > 100 µM (inactive) | > 100 µM (inactive) | > 100 µM (inactive) | > 100 µM (inactive) | > 100 µM (inactive) | > 100 µM (inactive) | > 100 µM (inactive) | – |
| CCCCc1cc2c(cc1O)CCC1C2CC[C@@]2(C)C1CC[C@@H]2O (stereo partly drawn) | 22.8 µM (inactive) | 16.2 µM (inactive) | – | 24.7 µM (inactive) | 18.3 µM (inactive) | 14.3 µM (inactive) | 23.8 | 12.3 µM (inactive) | 20.7 µM (inactive) | 16.9 µM (inactive) | 13.7 µM (inactive) | 15.3 µM (inactive) | 5.14 µM (inactive) | 29.6 µM (inactive) | 13.3 µM (inactive) | 20.2 µM (inactive) | 15.4 µM (inactive) | 16.6 µM (inactive) | 23.4 µM (inactive) |
| N#Cc1c(-c2ccc([N+](=O)[O-])cc2)cc(-c2ccc(Nc3ccnc4cc(C(F)(F)F)ccc34)cc2)[nH]c1=O | 51.9 µM (inactive) | > 100 µM (inactive) | > 100 µM (inactive) | 12.2 µM (inactive) | 71.3 µM (inactive) | 22.2 µM (inactive) | > 100 | – | > 100 µM (inactive) | > 100 µM (inactive) | – | > 100 µM (inactive) | > 100 µM (inactive) | > 100 µM (inactive) | > 100 µM (inactive) | > 100 µM (inactive) | > 100 µM (inactive) | > 100 µM (inactive) | – |
| O=C(Nc1ccc(Br)cc1)c1c(-c2ccccc2)c2ccc(O)cc2oc1=O | > 10 µM (inactive) | > 10 µM (inactive) | – | > 10 µM (inactive) | > 10 µM (inactive) | – | > 10 | > 10 µM (inactive) | > 10 µM (inactive) | > 10 µM (inactive) | > 10 µM (inactive) | > 10 µM (inactive) | > 10 µM (inactive) | > 10 µM (inactive) | > 10 µM (inactive) | > 10 µM (inactive) | > 10 µM (inactive) | > 10 µM (inactive) | > 10 µM (inactive) |
| O=[N+]([O-])c1cc2c(cc1O)[nH]c1cccc([N+](=O)[O-])c12 | > 100 µM (inactive) | > 100 µM (inactive) | – | > 100 µM (inactive) | – | > 100 µM (inactive) | > 100 | > 100 µM (inactive) | > 100 µM (inactive) | > 100 µM (inactive) | > 100 µM (inactive) | > 100 µM (inactive) | > 100 µM (inactive) | > 100 µM (inactive) | > 100 µM (inactive) | > 100 µM (inactive) | > 100 µM (inactive) | > 100 µM (inactive) | – |
| O=c1oc2cccnc2n1CCN1CCN(c2ccc(Oc3ccccc3)cc2)CC1 | 20 µM (inactive) | 35 µM (inactive) | – | – | > 100 µM (inactive) | 33.6 µM (inactive) | 90.8 | – | 41.6 µM (inactive) | – | 25.5 µM (inactive) | > 100 µM (inactive) | 8.47 µM (inactive) | > 100 µM (inactive) | 43 µM (inactive) | > 100 µM (inactive) | 21.9 µM (inactive) | > 100 µM (inactive) | 79.6 µM (inactive) |
| O=C(O)CNC(=O)c1ccc(-c2ccccc2)cc1 | > 100 µM (inactive) | > 100 µM (inactive) | – | > 100 µM (inactive) | > 100 µM (inactive) | > 100 µM (inactive) | > 100 | > 100 µM (inactive) | > 100 µM (inactive) | > 100 µM (inactive) | > 100 µM (inactive) | > 100 µM (inactive) | > 100 µM (inactive) | > 100 µM (inactive) | > 100 µM (inactive) | > 100 µM (inactive) | > 100 µM (inactive) | > 100 µM (inactive) | > 100 µM (inactive) |
| CCNCCNC(=O)c1ccc(Br)cc1 | > 100 µM (inactive) | > 100 µM (inactive) | > 100 µM (inactive) | – | – | – | > 100 | > 100 µM (inactive) | – | > 100 µM (inactive) | > 100 µM (inactive) | > 100 µM (inactive) | > 100 µM (inactive) | > 100 µM (inactive) | – | > 100 µM (inactive) | – | > 100 µM (inactive) | – |
| C[C@@H](c1ccccc1)N1C[C@@H](c2ccc3c(c2)OCO3)[C@@H]2C(=O)CCC[C@@H]21 | 75.2 µM (inactive) | 35.2 µM (inactive) | – | 20.6 µM (inactive) | > 100 µM (inactive) | 43.8 µM (inactive) | 61.2 | 97.9 µM (inactive) | 31.3 µM (inactive) | > 100 µM (inactive) | – | > 100 µM (inactive) | 38.1 µM (inactive) | 96.8 µM (inactive) | 79.3 µM (inactive) | – | 50.2 µM (inactive) | > 100 µM (inactive) | > 100 µM (inactive) |
| COc1ccc(CNc2nc(NCc3ccc(OC)cc3)nc(NC(C)C)n2)cc1 | 7.91 µM (inactive) | 8.02 µM (inactive) | – | 9.57 µM (inactive) | 19.2 µM (inactive) | 3.18 µM (inactive) | 4.12 | 5.07 µM (inactive) | 5 µM (inactive) | – | 3.33 µM (inactive) | 13.1 µM (inactive) | 1.94 µM (inactive) | 9.02 µM (inactive) | 3.96 µM (inactive) | 4.22 µM (inactive) | 7.85 µM (inactive) | 20.3 µM (inactive) | 2.69 µM (inactive) |
| CCCCOP(=O)(OCCCC)C(NS(=O)(=O)c1ccccc1)(C(=O)OCC)C(F)(F)F (stereo not drawn) | 33.3 µM (inactive) | 27.9 µM (inactive) | – | 19.5 µM (inactive) | 45.3 µM (inactive) | 27.4 µM (inactive) | 39.7 | 31 µM (inactive) | 23.1 µM (inactive) | 27.6 µM (inactive) | 25.1 µM (inactive) | 40.1 µM (inactive) | 24.5 µM (inactive) | 43 µM (inactive) | 25.8 µM (inactive) | – | 31.9 µM (inactive) | 16.4 µM (inactive) | 37.2 µM (inactive) |
